Data reported in US9532994B2, “Agents and methods for enhancing bone formation by oxysterols in combination with bone morphogenic proteins” (THE REGENTS OF THE UNIVERSITY OF CALIFORNIA, priority 2003, dated 2017).

What was measured:
M2 cells [1] = test: Adipogenesis of M2 cells, oil Red O staining and adipocyte count; assay type: cell-based, mouse; settings: 10 μM Tro, 10 μM oxysterols, alone or in combination, 10 days (FIG. 7)
Method: (§1) Von Kossa and oil red O staining—Matrix mineralization in cell monolayers was detected by silver nitrate staining as previously described. Oil red O staining for detection of adipocytes was performed as previously described.
Test 1: M2 cells at 90% confluence were treated with vehicle (C), PPAR-γ activator, troglitazone 10 uM (Tro), alone or in combination with 10 μM oxysterols 20S-, 22R-, or 25S-hydroxycholesterol. After 8 days, adipocytes were identified by oil Red O staining and quantified by counting under a phase contrast microscope. FIG. 6A is a bar graph depicting the effect of oxysterols on reducing adipogenesis of MSC.
Test 2: (A) M2 cells at confluence were treated in RPMI containing 10% FBS with control vehicle or 10 μM troglitazone (Tro) in the absence or presence of 10 μM 20S or 22S oxysterols. After 10 days, adipocytes were visualized by oil Red O staining and quantified by light microscopy, shown in (B). Data from a representative of four experiments are shown, reported as the mean SD of quadruplicate determinations (p<0.001 for Tro vs. Tro+20S and Tro+22S). (C) M2 cells were treated at confluence with 10 μM Tro, alone or in combination with 10 μM 20S oxysterol. After 10 days, total RNA was isolated and analyzed for lipoprotein lipase (LPL), adipocyte P2 gene (aP2) or 18S rRNA expression by Northern blotting as described (Ref). Data from densitometric analysis of the Northern blot is shown in (D) as the average of duplicate samples, normalized to 18S rRNA.

[2] = tested on: M2-10B4 mouse marrow stromal cell line; test: Alkaline phosphatase (ALP) activity assay in M2 cells; assay type: cell-based; settings: for inhibition of oxysterol-induced alkaline phosphatase activity: with 22R+20S (2.5 μM each), 3 days, SC 10 μM, ACA 25 μM, MC 20 μM (FIGS. 9A, 9E)
Method: (§2) Cells: M2-10B4 mouse marrow stromal cell line obtained from American Type Culture Collection (ATCC, Rockville, Md., U.S.A.) was derived from bone marrow stromal cells of a (C57BL/6J×C3H/HeJ) F1 mouse, and support human and murine myelopoiesis in long-term cultures (as per ATCC) and have the ability to differentiate into osteoblastic and adipocytic cells. Unless specified, these cells were cultured in RPMI 1640 containing 10% heat-inactivated FBS, and supplemented with 1 mM sodium pyruvate, 100 U/ml penicillin, and 100 […] (all from Irvine Scientific).
Alkaline phosphatase activity assay: Colorimetric alkaline phosphatase (ALP) activity assay on whole cell extracts was performed as previously described. […]
Test 2: M2 cells were grown in RPMI medium containing 10% fetal bovine serum (FBS). At confluence, the cells were treated in RPMI containing 5% FBS plus ascorbate at 50 μg/ml and β-glycerophosphate at 3 mM to induce osteoblastic differentiation. Adipogenic differentiation was induced by treating the cells in growth medium plus 10 ˜M troglitazone. A vehicle (C) or oxysterol treatment was applied to cells in a variety of doses (in μM): 20S-Hydroxycholesterol, 25-Hydroxycholesterol, 22R-Hydroxycholesterol; 22S-Hydroxycholesterol; 7-ketocholesterol. Cells were always treated at 90% confluence. After 4 days, alkaline phosphatase activity was determined in whole cell lysates and normalized to protein. Alternatively, MSC cultures were prepared and treated with oxysterols as described above. Cells were treated at 90% confluence with the combination of 22R-Hydroxycholesterol and 20S-Hydroxycholesterol, each at 5 μM, for 4 to 96 hours. The oxysterols where removed and fresh media without oxysterols was added for a total duration of 96 hours. Alkaline phosphatase activity was measured in whole cell extracts and normalized to protein.
M2 cells were treated at 90% confluence with vehicle (C), or oxysterols 20S-Hydroxycholesterol or 22S-Hydroxycholesterol at (0.5 μM) or (1 μM), in the absence or presence of cytochrome P450 inhibitor (SKF525A 10 μM (+)). MSC cultures were also treated at 90% confluence with vehicle (C), or 20S-Hydroxycholesterol (2 μM), in the absence or presence of cytochrome P450 […] (Benzylimidazole 50 μM) or SKF525A (10 μM). After 4 days, alkaline phosphatase activity was measured in whole cell extracts and normalized to protein. […]

[3] = tested on: M2-10B4 mouse marrow stromal cell line; test: Matrix mineralization in M2 cells (von Kossa staining, 45Ca incorporation assay); assay type: cell-based; settings: for inhibition of oxysterol-induced mineralization: with 22R+20S (2.5 μM each), 10 days, 45Ca incorporation (FIGS. 9B, 9F)
Method: as §2, §1
^45Ca incorporation assay—Matrix mineralization in cell monolayers was quantified using the ^45Ca incorporation assay as previously described.
M2 cells at confluence were treated in osteogenic medium with control vehicle or 5 μM oxysterols, alone or in combination as indicated. After 14 days, mineralization was identified by a von Kossa staining, which appears black. FIG. 3C is a depiction of von Kossa staining of M2 cells exposed to various conditions.
M2 cells were treated with control vehicle (C) or a combination of 22R and 20S oxysterols at increasing concentrations. After 14 days, matrix mineralization in cultures was quantified using a ^45Ca incorporation assay. […] FIG. 3D is a bar graph depicting the effect of a combination of oxysterols at various doses on calcium incorporation in M2 cells.
(§3) Next, a combination of 22R and 20S oxysterols (RS, 2.5 μM each) were added in the presence or absence of SC as indicated. After 3 days, ALP activity was measured as described earlier. […] (B) M2 cells were treated as described in (A) and after 10 days matrix mineralization in cultures was quantified by a ^45Ca incorporation assay as described earlier. Results from a representative of three experiments are shown, reported as the mean±SD of quadruplicate determinations, normalized to protein concentration. (C) M2 cells were pretreated with 20 μM SC for 4 hours, followed by the addition of RS in the presence or absence of SC as described above. After 8 days, total RNA was isolated and analyzed for osteocalcin (Osc) and 18S rRNA expression by Northern blotting as previously described. Data from densitometric analysis of the Northern blot is shown in (D) as the average of duplicate samples, normalized to 18S rRNA. (E) M2 cells at confluence were pretreated for 2 hours with control vehicle (C), or PLA2 inhibitors ACA (25 μM) and MCOCF3 (MC, 20 μM), in osteogenic medium. Next, a combination of 22R and 20S oxysterols (RS, 2.5 μM) was added in the presence or absence of the inhibitors as indicated. After 3 days, ALP activity was measured as previously described. Data from a representative of three experiments are shown, reported as the mean±SD of quadruplicate determinations, normalized to protein concentration (p<0.01 for RS vs. RS+ACA and RS+MC). (F) M2 cells were treated as described in (E). After 10 days, matrix mineralization in cultures was quantified using a ^45Ca incorporation assay as previously described. Results from a representative of three experiments are shown, reported as the mean of quadruplicate determinations±SD, normalized to protein concentration (p<0.01 for RS vs. RS+ACA and RS+MC).
(A) M2 cells at confluence were pretreated for four hours with RPMI containing 1% FBS, followed by treatment with control vehicle or 5 μM 20S oxysterol for 1, 4, or 8 hours. Next total cell extracts were prepared and analyzed for levels of native or phosphorylated ERK (pERK) using specific antibodies as previously described.

marrow stromal cells = test: Osteogenic activity/effects of oxysterol combinations in marrow stromal cells, readout not specified; assay type: cell-based, mouse; settings: NS-398 at 20 μM, M2 cells
M2 cells [4] = test: Non-toxic doses in M2 cell cultures; assay type: cell-based, mouse
[5] = tested on: osteocalcin mRNA in M2 cells; test: Northern blotting for osteocalcin mRNA in M2 cells; assay type: cell-based, mouse; settings: TO treatment, after 10 days
Method: The extent of gene induction was determined by densitometry.
After 4 and 8 days, total RNA from duplicate samples was isolated and analyzed for osteocalcin (Osc) and 28S rRNA expression by Northern blotting as described. FIG. 3E is a radiogram of Northern blotting for osteocalcin mRNA in M2 cells exposed to a control or combination of oxysterols for 4 or 8 days. FIG. 3F is a bar graph depicting the relative demsometric units of osteocalcin mRNA in M2 cells exposed to a control or combination of oxysterols for 4 or 8 days. Data from densitometric analysis of the Northern blot is shown in (F) as the average of duplicate samples, normalized to 28S rRNA.
as §3, with “(E).” for “(E). After 10 days, matrix mineralization in cultures was quantified using a ^45Ca incorporation assay as previously described. Results from a representative of three experiments are shown, reported as the mean of quadruplicate determinations±SD, normalized to protein concentration (p<0.01 for RS vs. RS+ACA and RS+MC).”

CC(C)CCC[C@@H](C)[C@H]1CC[C@H]2[C@@H]3C(=O)C=C4C[C@@H](O)CC[C@]4(C)[C@H]3CC[C@]12C [7K, 7-ketocholesterol, reference compound]
adipogenesis induced by troglitazone (M2 cells [1]): unable to inhibit
induction of alkaline phosphatase activity ([2]; 10 μM oxysterols, osteogenic medium, 3 days (FIG. 3A)): did not induce

CCCCC/C=C\C/C=C\C/C=C\C/C=C\CCCC(=O)C(F)(F)F [AACOCF3]
inhibition of oxysterol-induced alkaline phosphatase activity [2]: inhibited
inhibition of oxysterol-induced mineralization [3]: inhibited

CCCCCc1ccc(/C=C/C(=O)Nc2ccccc2C(=O)O)cc1 [ACA]
inhibition of oxysterol-induced alkaline phosphatase activity [2]: inhibited
inhibition of oxysterol-induced mineralization [3]: inhibited

CS(=O)(=O)Nc1ccc([N+](=O)[O-])cc1OC1CCCCC1 [NS-398]
inhibition of osteogenic effects of oxysterol combination (marrow stromal cells): negligible inhibitory effects
highest non-toxic dose (M2 cells [4]): 20 µM

COc1cccc(-c2cc(=O)c3ccccc3o2)c1N [PD98059]
inhibition of oxysterol-induced mineralization by ERK pathway inhibitor ([3]; 20 μM PD with 22R+20S (5 μM each), 10 days (FIG. 10B)): inhibited

CCCCC[C@H](O)/C=C/[C@H]1[C@H](O)CC(=O)[C@@H]1C/C=C\CCCC(=O)O [PGE2, prostaglandin E2]
reversal of effect of COX-1 inhibitor on oxysterol-induced alkaline phosphatase activity ([2]; 1 μM PGE2, data not shown): reversed

CCCC(C(=O)OCCN(CC)CC)(c1ccccc1)c1ccccc1.Cl [SKF525A]
effect on osteogenic effects of the oxysterols (alkaline phosphatase activity) ([2]; SKF525A 10 μM with 20S or 22S at 0.5 or 1 μM, 4 days (FIG. 5A)): potentiated

O=S(=O)(c1ccccc1)N(CC(F)(F)F)c1ccc(C(O)(C(F)(F)F)C(F)(F)F)cc1 [TO, TO-901317]
induction of osteocalcin gene expression [5]: did not induce
osteoblastic differentiation (alkaline phosphatase activity), LXR ligands ([2]; 1-4 μM, 4 days (FIG. 8)): inhibited
inhibition of alkaline phosphatase activity ([2]; TO at 1-10 μM): dose-dependent inhibition
alkaline phosphatase activity ([2]; ligands used at 10 μM, ±SD, control vehicle C: 18±2, p<0.01 for C vs. all ligands): 3±0.5 activity units/mg protein
induction of mineralization ([3]; TO treatment, after 10 days): did not induce

CCCCC/C=C\C/C=C\C/C=C\C/C=C\CCCC(=O)O [arachidonic acid]
reversal of effect of PLA2 inhibitors on oxysterol-induced alkaline phosphatase activity ([2]; 25 μM arachidonic acid, data not shown): reversed
